Laboratory results taken from patent publication US12172995B2, “Substituted indole and indazole compounds” (BRISTOL-MYERS SQUIBB COMPANY, priority 2018, dated 2024).

Key:
Format in all cases: cell-based
human TLR7 = molecular target: T1, human TLR7 (Homo sapiens, UniProt Q9NYK1); assay: TLR7 inhibition reporter assay (HEK-Blue SEAP); conditions: HEK-Blue cells overexpressing human TLR7, stimulated with gardiquimod 7.5 μM, 22 hour incubation
T1 construct: host or cells: HEK-Blue cells
T1 sequence (Q9NYK1 27-1049): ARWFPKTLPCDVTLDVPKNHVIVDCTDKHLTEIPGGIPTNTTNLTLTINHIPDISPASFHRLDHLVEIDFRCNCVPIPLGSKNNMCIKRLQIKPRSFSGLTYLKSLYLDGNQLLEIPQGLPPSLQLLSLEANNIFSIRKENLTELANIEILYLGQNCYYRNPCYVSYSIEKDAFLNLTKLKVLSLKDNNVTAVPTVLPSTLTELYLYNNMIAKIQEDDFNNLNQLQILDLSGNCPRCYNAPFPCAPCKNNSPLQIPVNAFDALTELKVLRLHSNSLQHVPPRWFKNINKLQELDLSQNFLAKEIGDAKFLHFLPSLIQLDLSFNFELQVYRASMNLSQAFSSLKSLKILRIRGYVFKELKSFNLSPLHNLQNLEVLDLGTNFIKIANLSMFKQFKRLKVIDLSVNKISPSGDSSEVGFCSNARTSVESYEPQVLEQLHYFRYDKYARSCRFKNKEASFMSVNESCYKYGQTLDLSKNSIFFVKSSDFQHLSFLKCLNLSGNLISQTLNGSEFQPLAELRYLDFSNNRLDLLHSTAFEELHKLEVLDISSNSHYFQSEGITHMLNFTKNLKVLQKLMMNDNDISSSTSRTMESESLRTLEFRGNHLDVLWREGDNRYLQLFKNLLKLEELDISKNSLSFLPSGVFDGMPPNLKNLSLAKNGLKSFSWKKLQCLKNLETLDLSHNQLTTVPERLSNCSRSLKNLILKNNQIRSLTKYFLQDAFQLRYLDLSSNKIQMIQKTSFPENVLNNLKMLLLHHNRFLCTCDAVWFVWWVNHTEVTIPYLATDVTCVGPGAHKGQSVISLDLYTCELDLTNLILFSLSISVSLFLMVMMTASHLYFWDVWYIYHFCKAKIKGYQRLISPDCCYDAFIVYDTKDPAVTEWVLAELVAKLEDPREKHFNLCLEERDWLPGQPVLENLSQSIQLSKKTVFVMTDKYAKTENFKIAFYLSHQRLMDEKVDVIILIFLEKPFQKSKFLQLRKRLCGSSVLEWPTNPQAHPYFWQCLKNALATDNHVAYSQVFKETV
Procedure, shortened: (§1)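 Percent inhibition reflects SEAP reduction after 22 h at 37° C, relative to agonist-plus-DMSO and known-inhibitor controls. Compounds (0.05 nM to 50 μM) were added 30 min before agonist: TLR9 cells received ODN2006 5 nM, TLR8 cells R848 15.9 μM, TLR7 cells gardiquimod 7.5 μM; human receptor-expressing HEK-Blue reporter lines.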

human TLR9 = molecular target: T2, human TLR9 (Homo sapiens, UniProt Q9NR96); assay: TLR9 inhibition reporter assay (HEK-Blue SEAP); conditions: HEK-Blue cells overexpressing human TLR9, stimulated with ODN2006 5 nM, 22 hour incubation
T2 construct: host or cells: HEK-Blue cells
T2 sequence (Q9NR96 26-1032): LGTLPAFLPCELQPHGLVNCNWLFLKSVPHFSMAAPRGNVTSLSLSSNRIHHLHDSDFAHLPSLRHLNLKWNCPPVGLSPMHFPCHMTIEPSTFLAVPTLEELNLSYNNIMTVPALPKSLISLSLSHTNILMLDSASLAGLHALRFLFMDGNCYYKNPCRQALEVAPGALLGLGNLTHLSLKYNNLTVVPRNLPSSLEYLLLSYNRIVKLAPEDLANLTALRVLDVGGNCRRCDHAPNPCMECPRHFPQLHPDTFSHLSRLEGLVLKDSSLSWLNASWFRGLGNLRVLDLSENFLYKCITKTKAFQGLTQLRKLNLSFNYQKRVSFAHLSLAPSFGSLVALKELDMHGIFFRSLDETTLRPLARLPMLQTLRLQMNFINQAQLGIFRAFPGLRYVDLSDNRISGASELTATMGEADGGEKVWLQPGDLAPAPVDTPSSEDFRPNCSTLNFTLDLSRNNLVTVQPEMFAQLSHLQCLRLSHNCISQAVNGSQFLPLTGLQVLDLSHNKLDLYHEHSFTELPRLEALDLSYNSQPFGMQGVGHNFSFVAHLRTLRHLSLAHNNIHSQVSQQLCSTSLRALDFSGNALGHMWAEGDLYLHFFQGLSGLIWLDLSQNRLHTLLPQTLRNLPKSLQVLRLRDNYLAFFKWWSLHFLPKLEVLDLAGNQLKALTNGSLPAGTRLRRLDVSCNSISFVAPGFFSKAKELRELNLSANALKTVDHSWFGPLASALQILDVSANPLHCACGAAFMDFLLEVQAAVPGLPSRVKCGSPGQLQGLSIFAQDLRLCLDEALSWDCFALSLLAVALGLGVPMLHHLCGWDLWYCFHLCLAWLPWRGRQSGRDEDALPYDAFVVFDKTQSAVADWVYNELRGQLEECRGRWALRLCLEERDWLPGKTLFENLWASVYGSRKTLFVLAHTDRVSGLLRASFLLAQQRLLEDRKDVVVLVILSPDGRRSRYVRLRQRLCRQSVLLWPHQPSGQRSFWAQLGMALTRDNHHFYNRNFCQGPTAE
Procedure, shortened: as §1

human TLR8 = molecular target: T3, human TLR8 (Homo sapiens, UniProt Q9NR97); assay: TLR8 inhibition reporter assay (HEK-Blue SEAP); conditions: HEK-Blue cells overexpressing human TLR8, stimulated with R848 15.9 μM, 22 hour incubation
T3 construct: host or cells: HEK-Blue cells
T3 sequence (Q9NR97 27-1041): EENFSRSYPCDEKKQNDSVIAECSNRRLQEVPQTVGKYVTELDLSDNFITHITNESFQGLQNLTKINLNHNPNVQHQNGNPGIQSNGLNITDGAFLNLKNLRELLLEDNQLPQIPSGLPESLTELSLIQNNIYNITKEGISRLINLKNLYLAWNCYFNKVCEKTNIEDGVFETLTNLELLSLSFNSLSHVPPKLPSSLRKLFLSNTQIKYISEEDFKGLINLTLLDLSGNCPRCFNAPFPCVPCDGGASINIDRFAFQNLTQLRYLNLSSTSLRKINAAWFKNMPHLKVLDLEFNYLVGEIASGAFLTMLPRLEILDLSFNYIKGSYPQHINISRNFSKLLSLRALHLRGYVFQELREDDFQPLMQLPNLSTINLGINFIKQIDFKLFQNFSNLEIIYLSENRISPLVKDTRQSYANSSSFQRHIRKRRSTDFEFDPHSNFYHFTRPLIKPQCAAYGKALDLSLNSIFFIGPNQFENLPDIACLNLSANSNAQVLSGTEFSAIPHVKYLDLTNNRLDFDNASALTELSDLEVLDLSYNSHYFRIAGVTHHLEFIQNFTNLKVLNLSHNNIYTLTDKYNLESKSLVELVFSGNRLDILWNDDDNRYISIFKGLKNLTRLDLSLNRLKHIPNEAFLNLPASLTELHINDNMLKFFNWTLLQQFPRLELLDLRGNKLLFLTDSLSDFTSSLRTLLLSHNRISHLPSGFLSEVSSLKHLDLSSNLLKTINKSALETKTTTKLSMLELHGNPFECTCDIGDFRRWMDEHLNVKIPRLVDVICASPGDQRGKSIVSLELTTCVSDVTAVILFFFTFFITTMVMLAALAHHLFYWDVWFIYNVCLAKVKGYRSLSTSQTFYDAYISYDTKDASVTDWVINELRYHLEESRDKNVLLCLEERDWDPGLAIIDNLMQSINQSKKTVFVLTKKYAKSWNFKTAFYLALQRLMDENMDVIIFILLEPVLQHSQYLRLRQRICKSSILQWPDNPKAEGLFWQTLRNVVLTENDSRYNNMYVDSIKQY
Procedure, shortened: as §1

Compound | IC50 (human TLR7) [µM] | IC50 (human TLR9) [µM] | IC50 (human TLR8) [µM]
Cc1cc2c(C3CCC(NCC(=O)N(C)C)CC3)n[nH]c2cc1-c1cc(C)c2ncnn2c1 (single isomer, unassigned) [Example 28, N,N-dimethyl-2-((4-(5-methyl-6-(8-methyl-[1,2,4]triazolo[1,5-a]pyridin-6-yl)-1H-indazol-3-yl)cyclohexyl)amino)acetamide] | 0.0124 | 4.41 | 0.0004
CNC1CCC(c2n[nH]c3cc(-c4cc(C)c5ncnn5c4)c(C)cc23)CC1 (stereo not drawn) [Example 44, N-methyl-4-(5-methyl-6-(8-methyl-[1,2,4]triazolo[1,5-a]pyridin-6-yl)-1H-indazol-3-yl)cyclohexan-1-amine] | 0.0463 | 5.49 | 0.0019
Cc1cc2c(C3CCC(N(C)C4COC4)CC3)n[nH]c2cc1-c1cc(C)c2ncnn2c1 (single isomer, unassigned) [Example 33, N-methyl-N-(4-(5-methyl-6-(8-methyl-[1,2,4]triazolo[1,5-a]pyridin-6-yl)-1H-indazol-3-yl)cyclohexyl)oxetan-3-amine] | 0.0967 | 9.01 | 0.003
Cc1cc(-c2ccc3c(C4CCC(N(C)C)CC4)c[nH]c3c2)cn2ncnc12 (single isomer, unassigned) [Example 15, N,N-dimethyl-4-(6-(8-methyl-[1,2,4]triazolo[1,5-a]pyridin-6-yl)-1H-indol-3-yl) cyclohexan-1-amine] | 0.0294 | 1.13 | 0.0259
Cc1cc(-c2ccc3c(CCNC4CCNCC4)c[nH]c3c2)cn2ncnc12 [Example 13, N-(2-(6-(8-methyl-[1,2,4]triazolo[1,5-a]pyridin-6-yl)-1H-indol-3-yl)ethyl)piperidin-4-amine] | 1.69 | 0.605 | 0.269
Cc1cc2c(CC3CCNCC3)n[nH]c2cc1-c1cc(C)c2ncnn2c1 [Example 10, 8-methyl-6-(5-methyl-3-(piperidin-4-ylmethyl)-1H-indazol-6-yl)-[1,2,4]triazolo[1,5-a]pyridine] | 0.0689 | 1.01 | 0.0038

Other lines, results leading:

IC50 (human TLR7) [µM] | IC50 (human TLR9) [µM] | IC50 (human TLR8) [µM] | Compound
0.0054 | 10.8 | 0.0002 | CCc1cc2c(C3CCC(NCC(=O)N(C)C)CC3)n[nH]c2cc1-c1cc(C)c2ncnn2c1 (stereo not drawn) [Example 95, 2-((4-(5-ethyl-6-(8-methyl-[1,2,4]triazolo[1,5-a]pyridin-6-yl)-1H-indazol-3-yl)cyclohexyl)amino)-N,N-dimethylacetamide]
0.0009 | 6.23 | 0.0001 | Cc1cc(-c2cc3[nH]nc(C4CCC(N5CCC(F)C5)CC4)c3cc2C(C)C)cn2ncnc12 (stereo not drawn) [Example 163, 6-(3-(4-(3-fluoropyrrolidin-1-yl)cyclohexyl)-5-isopropyl-1H-indazol-6-yl)-8-methyl-[1,2,4] triazolo[1,5-a]pyridine]
0.0047 | ≥ 50 | 0.0026 | Cc1cc(-c2cc3[nH]nc(C4CCC(N5CC(CO)(CO)C5)CC4)c3cc2C(C)C)cn2ncnc12 (stereo not drawn) [Example 146, (1-(4-(5-isopropyl-6-(8-methyl-[1,2,4]triazolo[1,5-a]pyridin-6-yl)-1H-indazol-3-yl)cyclohexyl)azetidine-3,3-diyl)dimethanol]
0.0508 | 11.2 | 0.0023 | Cc1cc2c(C3CCN(CCC#N)CC3)n[nH]c2cc1-c1cc(C)c2ncnn2c1 [Example 72, 3-(4-(5-methyl-6-(8-methyl-[1,2,4]triazolo[1,5-a]pyridin-6-yl)-1H-indazol-3-yl)piperidin-1-yl)propanenitrile]
0.0012 | 1.83 | 0.0005 | CCc1cc(-c2cc(C)c3ncnn3c2)cc2[nH]nc(OC3CCC(N(C)C)CC3)c12 (single isomer, unassigned) [Example 169, 4-((4-ethyl-6-(8-methyl-[1,2,4]triazolo[1,5-a]pyridin-6-yl)-1H-indazol-3-yl)oxy)-N,N-dimethylcyclohexan-1-amine]
0.001 | 5.87 | 0.0005 | Cc1cc(-c2cc3[nH]nc(C4CCC(N5CCC5)CC4)c3cc2C(C)C)cn2ncnc12 (single isomer, unassigned) [Example 138, 6-(3-(4-(azetidin-1-yl)cyclohexyl)-5-isopropyl-1H-indazol-6-yl)-8-methyl-[1,2,4]triazolo[1,5-a]pyridine]
0.0859 | 2.53 | 0.0019 | Cc1cc2c(NCCN3CCCC3)n[nH]c2cc1-c1cc(C)c2ncnn2c1 [Example 204, 5-methyl-6-(8-methyl-[1,2,4]triazolo[1,5-a]pyridin-6-yl)-N-(2-(pyrrolidin-1-yl)ethyl)-1H-indazol-3-amine]
0.0008 | 6.11 | 0.0001 | Cc1cc(-c2cc3[nH]nc(C4CCC(N5CC6(CCO6)C5)CC4)c3cc2C(C)C)cn2ncnc12 (stereo not drawn) [Example 156, 6-(4-(5-isopropyl-6-(8-methyl-[1,2,4]triazolo[1,5-a]pyridin-6-yl)-1H-indazol-3-yl)cyclohexyl)-1-oxa-6-azaspiro[3.3]heptane]
